# Patent publication US9428445B2, “Amine compounds and their use as zero or low VOC neutralizers” (ANGUS Chemical Company, priority 2012, dated 2016)
# Where a name gives a salt, the structure may show the parent alone. Read-outs that look alike come from different tables or passages of the source.
# What was measured:
# Assay type in all cases: physicochemical
# Thermal analysis (TGA) = assay: Thermal analysis (TGA)
# From the text: (§1) Thus, this material can be classified as a zero VOC using any of the three methods outlined in CARB Method 310.
# [1] = VOC determination per CARB Method 310 (vapor pressure, GC test)
# Experimental: Zero VOC can be defined in one of three ways according to California Air Resources Board (CARB) Method 310 for VOC determination: the vapor pressure can be below 0.1 mm Hg at 20° C., the boiling point can be above 216° C., or the compound must pass a gas chromatograph test (EPA Method 18, 8240B, 8260B,
# as §1
# [2] = Acid dissociation constants by standard titration method; details: read-out: acid dissociation constant (pKa)
# Experimental: (§2) Also using titration, the neutral equivalent is determined to be 168, which matches the molecule's molecular weight. However, upon inclusion into a paint formulation, slightly less (2%) of this molecule is needed to regulate pH than a control compound (2-amino-2-ethyl-1,3-propanediol (AEPD)) with a measured neutralization equivalent of 124. Thus, the second pKa contributes to pH regulation and contributes to the value of the compound as a neutralizer in paint formulations.
# [3] = Neutral equivalent by titration
# Experimental: as §2
Compound,boiling point (Thermal analysis (TGA)),decomposition temperature (Thermal analysis (TGA)),vapor pressure [1],VOC classification ([1]; any of the three methods outlined in CARB Method 310),"elution on the GC ([1]; cannot be vaporized, GC testing methods for CARB compliance)",pKa ([2]; primary amine),pKa ([2]; sodium carboxylate),neutral equivalent / neutralization equivalent [3]
"CC(C)(N)CNCC(=O)O [Example 1, N-[2-(amino)-2-methylpropyl]-glycine (Sodium Salt)]",no boiling point,> 275 °C,no discernable vapor pressure,zero VOC,does not elute,9.9,6.1,168
"CCC(N)(CO)CO [AEPD, 2-amino-2-ethyl-1,3-propanediol, reference compound]",–,–,–,–,–,–,–,124
